Patent US11708375B2, “Reagents for reversibly protecting biological molecules” (BIOMÉRIEUX, priority 2016, dated 2023)
One block for each molecule: values may come before it.

Columns and labels:
[1] = Cleavage at 95° C. of aza-anthranilate amides and release of phenylethylamine under hot start PCR conditions (LCMS/HPLC monitoring); type: physicochemical; conditions: 60 mM Tris pH 9 PCR buffer
Experimental: Into a 1.5 mL tube are added: 20 μL 2.5 mM amide solution (10, 14 or 19) in DMSO and 180 μL of a buffer conventionally used in a genetic material amplification reaction (60 mM Tris pH 9, 50 mM […], 1 mM MgCl2). The mixture is then stirred at 95° C. in a thermomixer. LCMS monitoring (condition 1) is performed at t=15 min, 30 min, and 1 h
Thermal deprotection of the phenoxyacetate group leads to formation of the corresponding benzyl alcohol (see Diagram 7). The nucleophilic attack of alcohol on the carbonyl involved in the amide bond then allows releasing the phenylethylamine into the medium by generating the corresponding lactone.
This derivative can then be cyclized to form the corresponding […] by releasing phenylethylamine into the medium (Diagram 9 above).

Human hemoglobin = biological target: T1, Human hemoglobin (Homo sapiens, UniProt P68871+P69905); experiment: Reversible acylation of hemoglobin by compound 13 (HPLC profile); type: biochemical
T1 construct: purchased Sigma H7379
Experimental: The mixtures are created as described below, where experiments AL600 1× to AL 600 0.25× respectively correspond to 33 μg hemoglobin reacted with increasing concentrations of the azaisatoic compound in a mixture of DMSO and PBS at pH 7.4 (PBS=Phosphate buffered saline resulting from dissolving a tablet, reference Sigma P4417, in 200 ml water (pH 7.4)) The mixtures are incubated at room temperature for 2 hours before collecting an aliquot for HPLC analysis on a Waters XBridge BEH C4 300 column (Milford. USA), with a gradient of 20 to 72% acetonitrile in a solution of 10 mM trifluoroacetic acid, at 120 min.
One can clearly see, as before, that acylation of the hemoglobin leads to formation of a mass of acylated protein and then this mass disappears after heat treatment in order to regenerate the native protein.

Taq polymerase = biological target: T2, Taq polymerase (Thermus aquaticus, UniProt P19821); experiment: Polymerase activity of TAQ modified by compound 13 (hairpin probe elongation fluorescence); type: biochemical; conditions: AL 604 0.375x
T2 construct: purchased Genscript E00012
Experimental: We used the Genscript Taq (2500 u/100 μl REF E00012), but in order to eliminate all traces of nucleophiles in this enzyme we did a change of buffer beforehand by passing through an Amicon 10 KD microcon (no. 42407). The enzyme suspension was thus deposited on the microcon and centrifuged until buffer depletion Five washes were performed with […] PBS pH 7.4, then the last retentate was recovered by inverting the tube and made up to QSP 20 μl with PBS to obtain a suspension at 125 u/μl. […]
The polymerization activity of the TAQ polymerase is determined using an oligonucleotide probe of 45 bases terminated by a “hairpin” structure. This is characterized by the presence of a fluorescence quencher at the beginning of the structure and a fluorophore at the end of the probe sequence, such that the quencher is spatially close to the fluorophore and no fluorescence signal can be measured in this configuration. […] Due to the elongation action, the probe hairpin structure is unfolded and the fluorophore is able to emit, and fluorescence is then measurable. This fluorescence measurement is carried out at a temperature of 60° C. for 20 minutes in the presence of the reagents required for activity of the enzyme, meaning dNTP, MgCl2, and a basic buffer at pH 9.5. […]
The ability to restore the activity of the enzyme after heating for 15 min at 95° C. for example is readily measurable by the same method.

T2 sequence (P19821 whole entry): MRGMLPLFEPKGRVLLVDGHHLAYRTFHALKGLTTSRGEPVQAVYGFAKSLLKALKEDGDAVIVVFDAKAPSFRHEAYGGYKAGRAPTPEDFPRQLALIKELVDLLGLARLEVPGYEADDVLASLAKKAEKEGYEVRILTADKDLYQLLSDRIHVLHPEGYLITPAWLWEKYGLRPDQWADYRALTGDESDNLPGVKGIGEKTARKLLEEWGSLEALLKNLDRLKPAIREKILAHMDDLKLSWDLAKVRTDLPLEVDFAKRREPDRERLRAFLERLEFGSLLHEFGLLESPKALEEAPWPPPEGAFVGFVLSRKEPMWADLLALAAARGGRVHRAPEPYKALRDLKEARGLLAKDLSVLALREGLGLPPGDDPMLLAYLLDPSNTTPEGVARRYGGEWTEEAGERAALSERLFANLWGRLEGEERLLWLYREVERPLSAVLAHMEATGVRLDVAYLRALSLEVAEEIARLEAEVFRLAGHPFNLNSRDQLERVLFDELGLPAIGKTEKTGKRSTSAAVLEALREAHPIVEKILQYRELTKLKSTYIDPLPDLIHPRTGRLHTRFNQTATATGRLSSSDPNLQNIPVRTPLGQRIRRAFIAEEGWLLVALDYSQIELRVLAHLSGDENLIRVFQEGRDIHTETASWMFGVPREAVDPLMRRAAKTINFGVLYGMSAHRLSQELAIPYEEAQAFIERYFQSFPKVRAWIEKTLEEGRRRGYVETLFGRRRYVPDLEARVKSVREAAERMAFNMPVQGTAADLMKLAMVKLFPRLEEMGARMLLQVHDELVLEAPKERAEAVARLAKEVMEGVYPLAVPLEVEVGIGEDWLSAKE
T1 sequence (P69905 2-142 limits assumed): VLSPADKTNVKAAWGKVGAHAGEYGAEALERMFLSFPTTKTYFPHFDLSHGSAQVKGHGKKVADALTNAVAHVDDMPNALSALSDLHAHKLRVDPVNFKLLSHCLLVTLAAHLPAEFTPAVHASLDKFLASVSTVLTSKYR
T1 sequence (P68871 2-147 limits assumed): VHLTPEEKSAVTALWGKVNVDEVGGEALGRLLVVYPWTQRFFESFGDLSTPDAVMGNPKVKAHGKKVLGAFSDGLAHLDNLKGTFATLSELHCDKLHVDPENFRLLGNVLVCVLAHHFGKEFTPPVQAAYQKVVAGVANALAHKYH

population of the initial amide and the alcohol ([1]; 1 h at 95° C.): almost completely disappeared
SMILES: CNc1ncc(I)c(COC(=O)COc2ccccc2)c1C(=O)NCCc1ccccc1 [derivative 10, (5-iodo-2-(methylamino)-3-(phenethylcarbamoyl)pyridine-4-yl)methyl 2-phenoxyacetate]
species observed by HPLC after heating (cleavage of the amide derivative) ([1]; 15 minutes at 95° C., 10% DMSO): formation of the deprotected alcohol and the expected lactone

non-cyclized deprotected form (intermediate amine) on HPLC monitoring ([1]; 95° C.): not detected
SMILES: CNc1ncc(I)c(CNC(=O)OC(C)(C)C)c1C(=O)NCCc1ccccc1 [derivative 19, tert-butyl ((5-iodo-2-(methylamino)-3-(phenethylcarbamoyl)pyridine-4-yl)methyl)carbamate]

SMILES: Cn1c(=O)oc(=O)c2c(COC(=O)COc3ccc(F)cc3)c(I)cnc21 [compound 13, (6-iodo-1-methyl-2,4-dioxo-2,4-dihydro-1H-pyrido[2,3-d][1,3]oxazine-5-yl) methyl 2-(4-fluorophenoxy)acetate]
acylation of hemoglobin (HPLC chromatogram) (Human hemoglobin; 33 μg hemoglobin, AL 600 0.25x-1x, DMSO/PBS pH 7.4, room temperature, 2 hours): disappearance of the protein portion in favor of a massive shift to the right
reversal of the acylation of hemoglobin after heat treatment (HPLC chromatogram) (Human hemoglobin; AL 600 1x, 95° C. for 15 min in PCR buffer (Tris pH9), taken up in 8M GuHCl): restoring the chromatographic profile of the native hemoglobin
polymerase activity of Taq after acylation, without activation (Taq polymerase; 625 units Taq, DMSO/PBS pH 7.4, 3 hours room temperature, measured at 60° C. for 20 minutes): completely inactivated
polymerase activity of Taq after acylation and heat activation (Taq polymerase; after treatment at 95° C. for 15 min under hot start PCR conditions): restored

amide population ([1]; 15 minutes at 95° C.): very low
amide population ([1]; 30 minutes at 95° C.): almost completely disappeared
SMILES: CNc1ncc(I)c(COC(=O)COc2ccc(F)cc2)c1C(=O)NCCc1ccccc1 [derivative 14, (5-iodo-2-(methylamino)-3-(phenethylcarbamoyl)pyridine-4-yl)methyl 2-(4-fluorophenoxy)acetate]
